Test results: patent US20240270741A1 (Cogent Biosciences, Inc., priority 2023, published 2024)

Target: FGFR2 (Homo sapiens, UniProt P21802)
Test: FGFR wild type enzyme assay (HTRF KinEASE-TK), FGFR2
Settings: Enz FGFR2 (nM), FGFR2 wild type enzyme assay

Sequence of FGFR2 (P21802 399-821 limits assumed): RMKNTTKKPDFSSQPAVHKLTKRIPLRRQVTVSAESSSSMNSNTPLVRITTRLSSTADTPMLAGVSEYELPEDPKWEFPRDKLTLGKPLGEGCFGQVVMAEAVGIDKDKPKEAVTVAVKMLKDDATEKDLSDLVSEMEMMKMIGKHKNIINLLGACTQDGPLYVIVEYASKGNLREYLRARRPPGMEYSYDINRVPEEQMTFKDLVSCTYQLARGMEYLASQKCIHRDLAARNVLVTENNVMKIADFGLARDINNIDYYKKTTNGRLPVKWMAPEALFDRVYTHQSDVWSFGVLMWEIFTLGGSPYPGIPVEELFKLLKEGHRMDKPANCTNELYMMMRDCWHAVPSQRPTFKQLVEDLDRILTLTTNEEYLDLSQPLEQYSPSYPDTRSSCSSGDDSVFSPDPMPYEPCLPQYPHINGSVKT

IC50 | SMILES
1.5 nM | N#Cc1cnn2cc(-c3ccc(N4CC[C@H](O)C4)nc3)cc(Sc3ncccc3F)c12 [Example 550, (S)-4-((3-fluoropyridin-2-yl)thio)-6-(6-(3-hydroxypryrrolidin-1-yl)pyridin-3-yl)pyrazolo[1,5-a]pyridine-3-carbonitrile]
2 nM | N#Cc1cnn2cc(-c3ccc(N4CC[C@@H](O)C4)nc3)cc(Sc3ncccc3F)c12 [Example 551, (R)-4-((3-fluoropyridin-2-yl)thio)-6-(6-(3-hydroxypyrrolidin-1-yl)pyridin-3-yl)pyrazolo[1,5-a]pyridine-3-carbonitrile]
1 nM | N#Cc1cnn2cc(-c3ccc(N4CCC(O)CC4)nc3)cc(Sc3ncccc3F)c12 [Example 552, 4-((3-fluoropyridin-2-yl)thio)-6-(6-(4-hydroxypiperidin-1-yl)pyridin-3-yl)pyrazolo[1,5-a]pyridine-3-carbonitrile]
1 nM | N#Cc1cnn2cc(-c3ccc(N4CCNCC4)nc3)cc(Sc3ncccc3F)c12 [Example 553, 4-((3-fluoropyridin-2-yl)thio)-6-(6-(piperazin-1-yl)pyridin-3-yl)pyrazolo[1,5-a]pyridine-3-carbonitrile]
2 nM | N#Cc1cnn2cc(-c3ccc(N4CCCC4)nc3)cc(Sc3ncccc3F)c12 [Example 554, 4-((3-fluoropyridin-2-yl)thio)-6-(6-(pyrrolidin-1-yl)pyridin-3-yl)pyrazolo[1,5-a]pyridine-3-carbonitrile]
1 nM | CC(=O)N1CCN(c2ccc(-c3cc(Sc4ncccc4F)c4c(C#N)cnn4c3)cn2)CC1 [Example 555, 6-(6-(4-acetylpiperazin-1-yl)pyridin-3-yl)-4-((3-fluoropyridin-2-yl)thio)pyrazolo[1,5-a]pyridine-3-carbontrile]
1 nM | Cc1c(-c2cc(Sc3ccccc3C#N)c3c(C#N)cnn3c2)cnn1C1CCN(C#N)CC1 [Example 556, 4-((2-cyanophenyl)thio)-6-(1-(1-cyanopiperidin-4-yl)-5-methyl-1H-pyrazol-4-yl)pyrazolo[1,5-a]pyridine-3-carbonitrile]
2 nM | Cc1c(-c2cc(Sc3ncccc3F)c3c(C#N)cnn3c2)cnn1C1CCN(C#N)CC1 [Example 557]
2 nM | Cn1cc(-c2cc(Sc3ccc(F)cc3C#N)c3c(C#N)cnn3c2)cn1 [Example 558, 4-((2-cyano-4-fluorophenyl)thio)-6-(1-methyl-1H-pyrazol-4-yl)pyrazolo[1,5-a]pyridine-3-carbonitrile]
1 nM | N#Cc1cc(F)ccc1Sc1cc(-c2ccc(N3CCCC3)nc2)cn2ncc(C#N)c12 [Example 559, 4-((2-cyano-4-fluorophenyl)thio)-6-(6-(pyrrolidin-1-yl)pyridin-3-yl)pyrazolo[1,5-a]pyridine-3-carbonitrile]
1 nM | CN1CCN(c2ccc(-c3cc(Sc4ccc(F)cc4C#N)c4c(C#N)cnn4c3)cn2)CC1 [Example 560, 4-((2-cyano-4-fluorophenyl)thio)-6-(6-(4-methylpiperazin-1-yl)pyridin-3-yl)pyrazolo[1,5-a]pyridine-3-carbonitrile]
7 nM | Cc1c(-c2cc(Sc3ccc(F)cc3C#N)c3c(C#N)cnn3c2)cnn1C[C@@H](O)CO [Example 561, (R)-4-((2-cyano-4-fluorophenyl)thio)-6-(1-(2,3-dihydroxypropyl)-5-methyl-1H-pyrazol-4-yl)pyrazolo[1,5-a]pyridine-3-carbonitrile]
1 nM | CC(=O)NC1CCN(c2ccc(-c3cc(Sc4ccccc4C#N)c4c(C#N)cnn4c3)cn2)C1 (stereo not drawn) [Example 562, N-(1-(5-(3-cyano-4-((2-cyanophenyl)thio)pyrazolo [1,5-a]pyridin-6-yl)pyridin-2-yl)pyrrolidin-3-yl)acetamide]
1 nM | C[C@@H](O)C(=O)N1CCC[C@@H](n2cc(-c3cc(Sc4ccccc4C#N)c4c(C#N)cnn4c3)cn2)C1 [Example 563, 4-((2-cyanophenyl)thio)-6-(1-((R)-1-((R)-2-hydroxypropanoyl)piperidin-3-yl)-1H-pyrazol-4-yl)pyrazolo[1,5-a]pyridine-3-carbonitrile]
0.5 nM | CO[C@@H](C)C(=O)N1CCC(n2cc(-c3cc(Sc4ccccc4C#N)c4c(C#N)cnn4c3)cn2)CC1 [Example 564, (S)-4-((2-cyanophenyl)thio)-6-(1-(1-(2-methoxypropanoyl)piperidin-4-yl)-1H-pyrazol-4-yl)pyrazolo[1,5-a]pyridine-3-carbonitrile]
0.5 nM | CO[C@H](C)C(=O)N1CCC(n2cc(-c3cc(Sc4ccccc4C#N)c4c(C#N)cnn4c3)cn2)CC1 [Example 565, (R)-4-((2-cyanophenyl)thio)-6-(1-(1-(2-methoxypropanoyl)piperidin-4-yl)-1H-pyrazol-4-yl)pyrazolo[1,5-a]pyridine-3-carbonitrile]
2 nM | N#Cc1ccccc1Sc1cc(-c2cnn(CCO)c2)cn2ncc(C#N)c12 [Example 566, 4-((2-cyanophenyl)thio)-6-(1-(2-hydroxyethyl)-1H-pyrazol-4-yl)pyrazolo[1,5-a]pyridine-3-carbonitrile]
1 nM | C[C@@H](O)Cn1cc(-c2cc(Sc3ccccc3C#N)c3c(C#N)cnn3c2)cn1 [Example 567, (R)-4-((2-cyanophenyl)thio)-6-(1-(2-hydroxypropyl)-1H-pyrazol-4-yl)pyrazolo[1,5-a]pyridine-3-carbonitrile]

IC50 | SMILES
1 nM | C[C@H](O)Cn1cc(-c2cc(Sc3ccccc3C#N)c3c(C#N)cnn3c2)cn1 [Example 568, (S)-4-((2-cyanophenyl)thio)-6-(1-(2-hydroxypropyl)-1H-pyrazol-4-yl)pyrazolo[1,5-a]pyridine-3-carbonitrile]
2 nM | N#Cc1ccccc1Sc1cc(-c2cn[nH]c2)cn2ncc(C#N)c12 [Example 569, 4-((2-cyanophenyl)thio)-6-(1H-pyrazol-4-yl)pyrazolo[1,5-a]pyridine-3-carbonitrile]
1 nM | C[C@H](O)CCn1cc(-c2cc(Sc3ccccc3C#N)c3c(C#N)cnn3c2)cn1 [Example 570]
1 nM | C[C@@H](O)CCn1cc(-c2cc(Sc3ccccc3C#N)c3c(C#N)cnn3c2)cn1 [Example 571, (R)-4-((2-cyanophenyl)thio)-6-(1-(3-hydroxybutyl)-1H-pyrazol-4-yl)pyrazolo[1,5-a]pyridine-3-carbonitrile]
1 nM | CCn1cc(-c2cc(Sc3ccccc3C#N)c3c(C#N)cnn3c2)cn1 [Example 572, 4-((2-cyanophenyl)thio)-6-(1-ethyl-1H-pyrazol-4-yl)pyrazolo[1,5-a]pyridine-3-carbonitrile]
4 nM | N#Cc1ccccc1Sc1cc(-c2cnn(CC(=O)O)c2)cn2ncc(C#N)c12 [Example 573, 2-(4-(3-cyano-4-((2-cyanophenyl)thio)pyrazolo [1,5-a]pyridin-6-yl)-1H-pyrazol-1-yl)acetic acid]
1 nM | CC(=O)N[C@H]1CC[C@H](n2cc(-c3cc(Sc4ccccc4C#N)c4c(C#N)cnn4c3)cn2)CC1 [Example 574, N-((1r,4r)-4-(4-(3-cyano-4-((2-cyanophenyl)thio)pyrazolo [1,5-a]pyridin-6-yl)-1H-pyrazol-1-yl)cyclohexyl)acetamide]
5 nM | CNc1ccc(-c2cc(Sc3ccc(F)cc3C#N)c3c(C#N)cnn3c2)cn1 [Example 575, 4-((2-cyano-4-fluorophenyl)thio)-6-(6-(methylamino)pyridin-3-yl)pyrazolo[1,5-a]pryidine-3-carbonitrile]
7 nM | Cc1cccc(Sc2cc(-c3cnn(C)c3)cn3ncc(C#N)c23)c1C#N [Example 576, 4-((2-cyano-3-methylphenyl)thio)-6-(1-methyl-1H-pyrazol-4-yl)pyrazolo[1,5-a]pyridine-3-carbonitrile]
7 nM | N#Cc1cnn2cc(-c3cn([C@H]4CCCNC4)nc3F)cc(Sc3ncccc3F)c12 [Example 577, (S)-6-(3-fluoro-1-(piperidin-3-yl)-1H-pyrazol-4-yl)-4-((3-fluoropyridin-2-yl)thio)pyrazolo[1,5-a]pyridine-3-carbonitrile]
2 nM | CC(C)(CO)n1cc(-c2cc(Sc3ccccc3C#N)c3c(C#N)cnn3c2)cn1 [Example 578, 4-((2-cyanophenyl)thio)-6-(1-(1-hydroxy-2-methylpropan-2-yl)-1H-pyrazol-4-yl)pyrazolo[1,5-a]pyridine-3-carbonitrile]
1.5 nM | CO[C@H]1CC[C@H](n2ncc(-c3cc(Sc4ccc(F)cc4C#N)c4c(C#N)cnn4c3)c2C)CC1 [Example 579, 4-((2-cyano-4-fluorophenyl)thio)-6-(1-((1r,4r)-4-methoxycyclohexyl)-5-methyl-1H-pyrazol-4-yl)pyrazolo[1,5-a]pyridine-3-carbonitrile]
1 nM | CN(C)c1ccc(-c2cc(Sc3ccccc3C#N)c3c(C#N)cnn3c2)cn1 [Example 580, 4-((2-cyanophenyl)thio)-6-(6-(dimethylamino)pyridin-3-yl)pyrazolo[1,5-a]pyridine-3-carbonitrile]
0.5 nM | N#Cc1ccccc1Sc1cc(-c2cnn([C@@H]3CCNC3)c2)cn2ncc(C#N)c12 [Example 581, (R)-4-((2-cyanophenyl)thio)-6-(1-(pyrrolidin-3-yl)-1H-pyrazol-4-yl)pyrazolo[1,5-a]pyridine-3-carbonitrile]
1 nM | CC(=O)N1CC[C@@H](n2cc(-c3cc(Sc4ccccc4C#N)c4c(C#N)cnn4c3)cn2)C1 [Example 582, (R)-6-(1-(1-acetylpyrrolidin-3-yl)-1H-pyrazol-4-yl)-4-((2-cyanophenyl)thio)pyrazolo [1,5-a]pyridine-3-carbonitrile]
1 nM | N#Cc1ccccc1Sc1cc(-c2cnn(CCCO)c2)cn2ncc(C#N)c12 [Example 583, 4-((2-cyanophenyl)thio)-6-(1-(3-hydroxypropyl)-1H-pyrazol-4-yl)pyrazolo[1,5-a]pyridine-3-carbonitrile]
6 nM | N#Cc1ccccc1Sc1cc(-c2cnn(C(F)F)c2)cn2ncc(C#N)c12 [Example 584, 4-((2-cyanophenyl)thio)-6-(1-(difluoromethyl)-1H-pyrazol-4-yl)pyrazolo[1,5-a]pyridine-3-carbonitrile]
1 nM | N#Cc1ccccc1Sc1cc(-c2cnn(C3CCOC3)c2)cn2ncc(C#N)c12 (stereo not drawn) [Example 585, 4-((2-cyanophenyl)thio)-6-(1-(tetrahydrofuran-3-yl)-1H-pyrazol-4-yl)pyrazolo[1,5-a]pryidine-3-carbonitrile]
